Values joined by “and” are separate entries in the source; they are usually repeats but may differ in a detail not shown here. Equal entries are not always repeated.
Test system: Sarcoma 180 cells
Test: Pharmacological activity testing in mice with sarcoma 180
Assay type: in vivo, ddy strain male mice
Details: 100 mg/kg intraperitoneally once daily for 11 days
From the text: Pharmacological activity testing in mice with sarcoma 180
Sarcoma 180 cells (1.16 X 10⁷ cells/animal) were transplanted into groups of 8 ddy strain male mice (5 to 6 weeks of age) subcutaneously at the back on the right side of the body. In one group, the compound S- (α ,β -dicarboxyethyl)glutathione (hereinafter referred to as "DCE-GS" for short) in the forms of a 1.0% (w/v) injectable solution (pH 6.5; isotonized with sodium chloride) was intraperitoneally administered to the animals in a volume corresponding to the dose of 100 mg/kg once daily for 11 days. The control group was intraperitoneally given the same volume of physiological saline once daily for the same period. On day 12, the animals were sacrificed, the tumor was excised from each animal and weighed.

In the case of `N[C@@H](CCC(=O)N[C@@H](CSC(CC(=O)O)C(=O)O)C(=O)NCC(=O)O)C(=O)O` (stereo partly drawn) [DCE-GS, S-(α ,β -Dicarboxyethyl)glutathione], the Tumor growth inhibition (day 12, versus physiological saline group) is reported as “Tumor growth inhibition = (3.45 - 1.79)/3.45 X 100 = 48.1%”, the “Tumor weights (Mean)” value (sarcoma 180 transplanted subcutaneously, day 12, mean of 8 mice, physiological saline group 3.45± 0.42) is reported as 1.79 ± 0.14 g and the “Tumor weights (individual animals)” value (sarcoma 180 transplanted subcutaneously, tumor excised and weighed on day 12, individual No. 1-8, 100 mg/kg) is reported as 2.48 g and 1.92 g and 2.09 g and 1.47 g and 1.95 g and 1.11 g and 1.62 g and 1.69 g.

Source: EP0420121A1, “Antitumor composition” (Senju Pharmaceutical Co., Ltd., priority 1989, dated 1991)
